Experiments:
Type in all cases: functional
MOLT-4 [1] = test: Antiproliferative activity against human MOLT-4 cells assessed as […] cell proliferation at 10 uM incubated for 48 hrs by WST-1 assay relative to control
MOLT-4 [2] = test: Antiproliferative activity against human MOLT-4 cells assessed as […] cell proliferation at 10 uM incubated for 48 hrs in presence of 2 uM of CDDP by WST-1 assay relative to control
Jurkat [3] = test: Antiproliferative activity against human Jurkat cells assessed as […] cell proliferation at 10 uM incubated for 48 hrs by WST-1 assay relative to control
Jurkat [4] = test: Antiproliferative activity against human Jurkat cells assessed as […] cell proliferation at 10 uM incubated for 48 hrs in presence of 2 uM of CDDP by WST-1 assay relative to control
A2780 [5] = test: Antiproliferative activity against human A2780 cells assessed as […] cell proliferation at 10 uM incubated for 48 hrs by WST-1 assay relative to control
A2780 [6] = test: Antiproliferative activity against human A2780 cells assessed as […] cell proliferation at 10 uM incubated for 48 hrs in presence of 2 uM of CDDP by WST-1 assay relative to control
MCF7 [7] = test: Antiproliferative activity against human MCF7 cells assessed as […] cell proliferation at 10 uM incubated for 48 hrs by WST-1 assay relative to control
MCF7 [8] = test: Antiproliferative activity against human MCF7 cells assessed as […] cell proliferation at 10 uM incubated for 48 hrs in presence of 10 uM of CDDP by WST-1 assay relative to control
A549 [9] = test: Antiproliferative activity against human A549 cells assessed as […] cell proliferation at 10 uM incubated for 48 hrs by WST-1 assay relative to control
A549 [10] = test: Antiproliferative activity against human A549 cells assessed as […] cell proliferation at 10 uM incubated for 48 hrs in presence of 15 uM of CDDP by WST-1 assay relative to control
SAOS-2 [11] = test: Antiproliferative activity against human SAOS-2 cells assessed as […] cell proliferation at 10 uM incubated for 48 hrs by WST-1 assay relative to control
SAOS-2 [12] = test: Antiproliferative activity against human SAOS-2 cells assessed as […] cell proliferation at 10 uM incubated for 48 hrs in presence of 15 uM of CDDP by WST-1 assay relative to control
PANC-1 [13] = test: Antiproliferative activity against human PANC-1 cells assessed as […] cell proliferation at 10 uM incubated for 48 hrs by WST-1 assay relative to control
PANC-1 [14] = test: Antiproliferative activity against human PANC-1 cells assessed as […] cell proliferation at 10 uM incubated for 48 hrs in presence of 15 uM of CDDP by WST-1 assay relative to control
HT-29 [15] = test: Antiproliferative activity against human HT-29 cells assessed as […] cell proliferation at 10 uM incubated for 48 hrs by WST-1 assay relative to control
HT-29 [16] = test: Antiproliferative activity against human HT-29 cells assessed as […] cell proliferation at 10 uM incubated for 48 hrs in presence of 15 uM of CDDP by WST-1 assay relative to control
HeLa [17] = test: Antiproliferative activity against human HeLa cells assessed as […] cell proliferation at 10 uM incubated for 48 hrs by WST-1 assay relative to control
HeLa [18] = test: Antiproliferative activity against human HeLa cells assessed as […] cell proliferation at 10 uM incubated for 48 hrs in presence of 15 uM of CDDP by WST-1 assay relative to control

Row | Structure (SMILES) | Activity (MOLT-4 [1]) [%] | Activity (MOLT-4 [2]) [%] | Activity (Jurkat [3]) [%] | Activity (Jurkat [4]) [%] | Activity (A2780 [5]) [%] | Activity (A2780 [6]) [%] | Activity (MCF7 [7]) [%] | Activity (MCF7 [8]) [%] | Activity (A549 [9]) [%] | Activity (A549 [10]) [%] | Activity (SAOS-2 [11]) [%] | Activity (SAOS-2 [12]) [%] | Activity (PANC-1 [13]) [%] | Activity (PANC-1 [14]) [%] | Cell viability relative to control (HT-29 [15]) [%] | Activity (HT-29 [16]) [%] | Activity (HeLa [17]) [%] | Activity (HeLa [18]) [%]
1 | CC(C)S(=O)(=O)c1ccc(-c2cnc3[nH]nc(C(=O)N4CCc5ccccc5C4)c3c2)cc1 | 96 | 61 | 96 | 61 | 96 | 61 | 96 | 61 | 96 | 61 | 96 | 61 | 96 | 61 | 96 | 61 | 96 | 61
2 | CC(C)S(=O)(=O)c1ccc(-c2cnc3[nH]nc(C(=O)NCc4ccccc4)c3c2)cc1 | 90 | 60 | 90 | 60 | 90 | 60 | 90 | 60 | 90 | 60 | 90 | 60 | 90 | 60 | 90 | 60 | 90 | 60
3 | CS(=O)(=O)c1ccc(-c2cnc3[nH]c(C(=O)N4CCC(c5ccccc5)CC4)cc3c2)cc1 | 93 | 66 | 93 | 66 | 93 | 66 | 93 | 66 | 93 | 66 | 93 | 66 | 93 | 66 | 93 | 66 | 93 | 66
4 | CCN(CC)c1ccc(CNC(=O)c2n[nH]c3ncc(-c4ccc(S(=O)(=O)C(C)C)cc4)cc23)cc1 | 83 | 57 | 83 | 57 | 83 | 57 | 83 | 57 | 83 | 57 | 83 | 57 | 83 | 57 | 83 | 57 | 83 | 57
5 | CC(C)S(=O)(=O)c1ccc(-c2cc(C(=O)NCc3ccccc3)n[nH]2)cc1 | 98 | 68 | 98 | 68 | 98 | 68 | 98 | 68 | 98 | 68 | 98 | 68 | 98 | 68 | 98 | 68 | 98 | 68
6 | CS(=O)(=O)c1ccc(-c2cnc(N)c(C(=O)Nc3ccccc3)n2)cc1 | 66 | 16 | 66 | 16 | 66 | 16 | 66 | 16 | 66 | 16 | 66 | 16 | 66 | 16 | 66 | 16 | 66 | 16
7 | CCN1CCN(Cc2c[nH]c3ncc(-c4ccc(S(=O)(=O)C(C)C)cc4)cc23)CC1 | 97 | 65 | 97 | 65 | 97 | 65 | 97 | 65 | 97 | 65 | 97 | 65 | 97 | 65 | 97 | 65 | 97 | 65
8 | CC(C)S(=O)(=O)c1ccc(-c2cnc3[nH]cc(C(=O)N4CCc5ccccc5C4)c3c2)cc1 | 85 | 66 | 85 | 66 | 85 | 66 | 85 | 66 | 85 | 66 | 85 | 66 | 85 | 66 | 85 | 66 | 85 | 66
9 | CCN(CC)c1ccc(CNC(=O)c2c[nH]c3ncc(-c4ccc(S(C)(=O)=O)cc4)cc23)cc1 | 76 | 59 | 76 | 59 | 76 | 59 | 76 | 59 | 76 | 59 | 76 | 59 | 76 | 59 | 76 | 59 | 76 | 59
10 | CC(C)S(=O)(=O)c1ccc(-c2cnc3[nH]cc(CN4CCc5ccccc5C4)c3c2)cc1 | 101 | 62 | 101 | 62 | 101 | 62 | 101 | 62 | 101 | 62 | 101 | 62 | 101 | 62 | 101 | 62 | 101 | 62
11 | CC(C)S(=O)(=O)c1ccc(-c2cnc3[nH]c(C(=O)Nc4ccc(N(C)C)cc4)cc3c2)cc1 | 108 | 68 | 108 | 68 | 108 | 68 | 108 | 68 | 108 | 68 | 108 | 68 | 108 | 68 | 108 | 68 | 108 | 68
12 | CCN(CC)c1ccc(CNC(=O)c2cc(-c3ccc(S(=O)(=O)C(C)C)cc3)[nH]n2)cc1 | 78 | 62 | 78 | 62 | 78 | 62 | 78 | 62 | 78 | 62 | 78 | 62 | 78 | 62 | 78 | 62 | 78 | 62
13 | CC(C)S(=O)(=O)c1ccc(-c2cc(C(=O)Nc3ccc(N(C)C)cc3)n[nH]2)cc1 | 93 | 65 | 93 | 65 | 93 | 65 | 93 | 65 | 93 | 65 | 93 | 65 | 93 | 65 | 93 | 65 | 93 | 65

Source: ChEMBL document CHEMBL5113478, “7-Azaindole, 2,7-diazaindole, and 1H-pyrazole as core structures for novel anticancer agents with potential chemosensitizing properties” (Eur J Med Chem, 2022)
